Entries after “also recorded” stand apart in the source; their conditions may differ.
Tests used:
[1] = tested on: C2C12 skeletal muscle cells; assay: Glucose uptake (2-deoxy glucose) in C2C12 skeletal muscle cells; assay type: cell-based; conditions: C2C12 cells 5 days in GLT DMEM medium with 100 μM compound; 100 nM insulin 1 h
Protocol: C2C12 skeletal muscle cell myotubes were cultured for 5 days in standard DMEM tissue culture media or GLT DMEM media. The media were either used without further supplementation (used as controls) or were independently supplemented with 100 μM of a compound (M4, M8, M14, M28, and M38 investigated). Myotubes were then serum-starved overnight in DMEM supplemented with 5 mM glucose, and thereafter incubated for 1 h in glucose-free DMEM or in glucose-free DMEM supplemented with 100 nM insulin stimulant. The media were thereafter replaced with phosphate buffered saline (PBS) containing 0.125 mM 2-deoxy glucose (2-DG). Glucose uptake reactions were conducted for 30 min, and then terminated by addition of stop buffer (0.4 M HCl+2% dodecyl trimethyl ammonium bromide). 2-deoxyglucose-6-phosphate (2DG6P) detection reagent was applied, and data were acquired using a CLARIOStar luminometer (BMG Labtech, Ortenberg, Germany).

[2] = tested on: C2C12 skeletal muscle cells; assay: Toxicity testing: C2C12 cell viability (Calcein AM fluorescence); assay type: cell-based; conditions: C2C12 myotubes cultured 5 days in GLT RPMI-1640 medium (28 mM glucose, 200 μM palmitic acid, 200 μM oleic acid) with 100 μM compound
Protocol: C2C12 muscle cell myotubes were cultured for 5 days in the following […] culture media: a control RPMI-1640 medium; glucolipotoxic (GLT) RPMI-1640 medium (28 mM glucose, 200 μM palmitic acid and 200 μM oleic acid) supplemented with 100 μM of M4; GLT RPMI-1640 medium supplemented with 100 µM of M8; GLT RPMI-1640 medium supplemented with 100 μM of M14; GLT RPMI-1640 medium supplemented with 100 μM of M28; and GLT RPMI-1640 medium supplemented with 100 μM of M38. Following culture, media were aspirated and cells washed 3 times in Krebs-Ringer buffer (KRB). A final concentration of […] Calcein AM Cell Viability Dye (ThermoFischer) in KRB was loaded for 1 h before washing again with KRB. Cell viability was measured via fluorescence, with excitation and emission at 490 nm and 520 nm, respectively.

[3] = tested on: C2C12 skeletal muscle cells; assay: Reactive species scavenging in C2C12 cells (DCFDA fluorescence); assay type: cell-based; conditions: C2C12 cells in GLT RPMI-1640 medium 5 days, 100 μM compound
Protocol: C2C12 muscle cell myotubes were cultured for 5 days in standard RPMI-1640 tissue culture media or GLT RPMI-1640 media. Corresponding media were independently supplemented with 100 μM of a compound (M4, M14, M8, M28, and M38 investigated). Non-supplemented standard and GLT RPMI-1640 media were also retained as controls. Cells were thereafter washed 3 times in KRB and 20 μM 2′,7′-dichlorofluorescein diacetate (DCFDA), a cell permeant fluorogenic dye that measures hydroxyl, peroxyl and other ROS, was loaded for 1 h. Reactive species detection was measured via fluorescence, with excitation at 495 nm and emission at 530 nm.

High fat-fed mice = assay: Effect on body weight in an in vivo model of obesity; conditions: high fat diet mice, 45 mg/kg body weight/day via drinking water, 10 weeks
Protocol: High fat-fed mice were used as an animal model of obesity. The body weights of the mice were monitored over a period of 10 weeks. The following three sets of mice were used in the study: • Non-high fat-fed mice that were administered a normal diet. • High fat-fed mice that were administered a high fat diet. • High fat-fed mice that were administered a high fat diet alongside 45 mg/kg body weight/day of compound M8, which was administered via drinking water.
High fat-fed mice were fed the following high fat diet from Research Diets: (60% fat; D12492). Non-high fat-fed mice were used as a control and were fed the following low fat diet from Research Diets: (10% fat, D12450B). The body weights of the mice were measured throughout.

| Structure (SMILES) | insulin-stimulated glucose uptake per total cellular protein [1] | cell viability (% change relative to control) [2] | intracellular reactive species (% change relative to control) [3] | toxic effects on the animals (High fat-fed mice) | body weight (High fat-fed mice; vs high fat-fed mice without compound, 45 mg/kg/day) |
| --- | --- | --- | --- | --- | --- |
| FC(F)(F)c1ccc(-n2ccnc2)nc1 [M4, 2-(1H-imidazol-1-yl)-5-(trifluoromethyl)pyridine] | reverse glucolipotoxic inhibition of insulin-stimulated glucose uptake | none of the tested compounds (M4, M8, M14, M28, and M38) reduce C2C12 skeletal muscle cell viability; also recorded: non-toxic to the cells | reduces GLT-associated reactive species levels | – | – |
| CNCc1ccc(-c2ccco2)nc1 [M8, 6-(2-furanyl)-N-methyl-3-pyridinemethanamine] | reverse glucolipotoxic inhibition of insulin-stimulated glucose uptake | none of the tested compounds (M4, M8, M14, M28, and M38) reduce C2C12 skeletal muscle cell viability; also recorded: non-toxic to the cells | reduces GLT-associated reactive species levels | no toxic effects on the animals | significantly reduces the body weight; also recorded: significant reduction of body weight |
| CNCc1cc(-c2ccccc2)no1 [M14, 5-[(methylamino)methyl]-3-phenylisoxazole] | reverse glucolipotoxic inhibition of insulin-stimulated glucose uptake | none of the tested compounds (M4, M8, M14, M28, and M38) reduce C2C12 skeletal muscle cell viability; also recorded: non-toxic to the cells | reduces GLT-associated reactive species levels | – | – |
| NCc1cc(-c2ccccc2)no1 [M28, (3-phenyl-5-isoxazolyl)methanamine] | reverse glucolipotoxic inhibition of insulin-stimulated glucose uptake | none of the tested compounds (M4, M8, M14, M28, and M38) reduce C2C12 skeletal muscle cell viability; also recorded: non-toxic to the cells | reduces GLT-associated reactive species levels | – | – |
| OCc1ccc(Cn2ccnc2)cc1 [M38, [4-(1H-imidazol-1-ylmethyl)phenyl]methanol] | reverse glucolipotoxic inhibition of insulin-stimulated glucose uptake | none of the tested compounds (M4, M8, M14, M28, and M38) reduce C2C12 skeletal muscle cell viability; also recorded: non-toxic to the cells | reduces GLT-associated reactive species levels | – | – |

From patent publication US20240325364A1, “COMPOSITIONS FOR USE IN THE TREATMENT OF METABOLIC SYNDROME” (Nottingham Trent University, priority 2021, published 2024)
